Source: US8895698B2, “Binding partners of antibodies specific for dendritic cell antigens” (The Corporation of the Trustees of the Order of the Sisters …, priority 2004, dated 2014)

Assays:
CMRF44Ab [1] = assay: Repeat panning of combined 7-mer and 12-mer phage peptide libraries on CMRF44Ab, sequencing of 3rd round clones and pooled eluate; assay type: binding; settings: 3 rounds, combined 7-mer and 12-mer libraries, acid elution; individual clones and pooled 3rd round eluate (FIG. 4)
Source text: FIG. 4 is a graphical representation of sequence results of 3rd round combined 7 and 12-mer phage peptide library panning (CMRF44Ab).
(§1) Peptide mimics were isolated from a phage display library using a library purchased from New England Biolabs called the PhD-12 Phage Display Peptide Library Kit (Cat No. #E8110S). The PhD-12 Phage Display Peptide Library Kit is based on a combinatorial library of random peptide 12-mers fused to a minor coat protein (pIII) of M13 phage. […] The library consists of ˜2.7×10^9 electroporated sequences, amplified once to yield ˜55 copies of each sequence in 10 μl of the supplied phage. The library is usually panned 3-4 times on the subject of study (usually antibody, but can use receptors, ligands etc.) with increasing stringency of washing at each step followed by analysis of individual clones for a consensus sequence binding to the test subject.
A consensus peptide sequence was identified for peptides which bind to CMRF44Ab from the 12-mer libraries using ELISA. Subsequent FACS analysis of phage peptide blocking of binding of CMRF44Ab to the cell surface also confirmed the peptide sequence. The peptide sequence appeared to be constrained to the N-terminus and the best sequence was AQKYQ (SEQ ID NO: 2) with apparent strong conservation at 1st, 3rd and 5th residues. […]

CMRF44Ab [2] = assay: ELISA binding of peptide phage clones to CMRF44Ab; settings: 12-mer phage libraries, confirmed by FACS blocking of CMRF44Ab binding to cell surface
Description: as §1
(§2) The consensus sequence of any peptides isolated from the library were be determined according to methods known to a person skilled in the art. ELISAs were then used to determine the binding of individual peptide phage clones or synthetic peptides (with or without repeats of the consensus sequence) to the original target (FIG. 1). Competitive binding assays were also used and analysed by FACS to determine true binding of the peptide sequences to the binding site of the target compared with the “natural” ligand or epitope (FIG. 2). Sequence analysis of the consensus sequence can determine what type of ligand is binding to the target or could give a true epitope, which may be used for database searches to find possible full-length sequences.
A consensus peptide sequence was identified for peptides which bind to CMRF44Ab from the 12-mer libraries using ELISA. Subsequent FACS analysis of phage peptide blocking of binding of CMRF44Ab to the cell surface also confirmed the peptide sequence. The peptide sequence appeared to be constrained to the N-terminus and the best sequence was AQKYQ (SEQ ID NO: 2) with apparent strong conservation at 1st, 3rd and 5th residues. A family of sequences were also identified and included ALKYQ (SEQ ID NO: 4), ALKEQ (SEQ ID NO: 5) and APKQQ (SEQ ID NO: 3). Further repeat panning of PhD-7 library was carried out to confirm the peptide sequence and identify other possible CMRF44 peptide antigen mimic sequences. […] Also, 3 rounds of repeat panning was carried out on combined 7-mer and 12-mer libraries (pooled together) with acid elution. Several clones sequences as well as pool of 3 round eluate. Results for CMRF-44 show an enrichment of the clone: ALKYQTGMPQSM (SEQ ID NO: 6) in both individual clones and the main strongest sequence in the pooled 3rd round eluate (FIG. 4).

CMRF44Ab [3] = assay: FACS competitive binding: peptide blocking of CMRF44Ab binding to natural antigen on KM-H2 cells; assay type: cell-based; settings: 5-mer peptide alone, KM-H2 cells (FIG. 22)
Source text: (§3) FIG. 22 is a graphical representation of FACS data showing binding of CMRF44Ab and scFv binding to KM-H2 cells and blocking of binding to natural antigen by competition with peptide mimic.
as §2

CMRF44 scFv = assay: FACS competitive binding: peptide blocking of CMRF44 scFv binding to natural antigen on KM-H2 cells; assay type: cell-based; settings: 5-mer peptide alone, KM-H2 cells (FIG. 22)
Source text: as §3, §2

| Substance | enrichment of clone in panning (CMRF44Ab [1]) | consensus peptide sequence binding to CMRF44Ab (CMRF44Ab [2]) | blocking of CMRF44Ab (CMRF44Ab [3]) | blocking of the engineered CMRF44 scFv (CMRF44 scFv) |
| --- | --- | --- | --- | --- |
| ALKYQTGMPQSM [12-mer phage display peptide clone] | enrichment |  |  |  |
| AQKYQ |  | best sequence | blocking | blocking |
| ALKYQ |  | identified |  |  |
| APKQQ |  | identified |  |  |
| ALKEQ |  | identified |  |  |
